Laboratory results taken from patent publication US20100113613A1, “CYCLOHEXANE POLYALCOHOL FORMULATION FOR TREATMENT OF DISORDERS OF PROTEIN AGGREGATION” (WARATAH PHARMACEUTICALS, priority 2006, published 2010).
Where “and” joins values, the source holds several entries; their conditions need not be identical. Equal entries are not always repeated.

Tests used:
in vivo [1] = conditions: dog, po
Procedure: (§1) Three studies were performed to investigate the pharmacokinetics of oral administration of a scyllo-cyclohexanehexyl (Table 1):
Two studies have investigated the single dose PK of oral administration of a scyllo-cyclohexanehexyl in dogs. The 14 day study investigated 18 animals. On Day 1 of this study Cmax and AUC values increased proportionally with dose level of a scyllo-cyclohexanehexyl. […] The extensive brain penetrance of the scyllo-cyclohexanhexyl (see below) may be relevant in this regard.

[2] = Brain penetrance: plasma and CSF pharmacokinetics after single oral doses in dogs; type: in vivo, dog
Source text: CSF bathes the central nervous system and sits on the inside of the blood brain barrier. Although a centrally-acting drug will still need to penetrate brain tissue to exert an effect, quantification of drug in CSF may provide a gross estimate of brain-penetrance.

in vivo [3] = conditions: rat, po, 150 mg/kg
Procedure: as §1
Plasma pharmacokinetics (PK) of a scyllo-cyclohexanehexyl in rats was assessed after single oral doses of 15, 50 and 150 mg/kg. After single oral doses in rats, maximum plasma concentration (Cmax) and exposure (AUC0-t) values increased proportionally with dose level of the scyllo-cyclohexanehexyl. Other parameters were unchanged with dose level. The scyllo-cyclohexanehexyl was absorbed rapidly, with mean tmax observed between 1.0 and 2.2 hours post-dose. […] Estimates of mean residence time (MRT) were consistent. Volumes of distribution (Vdss) were large, indicating wide distribution of scyllo-cyclohexanehexyl in rats.

in vivo [4] = conditions: dog, po, 150 mg/kg
Procedure: Plasma PK of a scyllo-cyclohexanhexyl in dogs was assessed after 14 days oral dosing of 15, 50 and 150 mg/kg, administered twice daily. As on Day 1 of this study Cmax and AUC values increased proportionally with dose level of scyllo-cyclohexanehexyl. However, dose-normalised exposures appeared to decrease with dose. This contrasts with positive trend observed after acute exposure. […] As for single doses, the scyllo-cyclohexanehexyl was absorbed rapidly, with tmax observed between 1.1 and 1.8 hours post-dose. […] Estimates of MRT were consistent. The Vdss and Cl/F values were similar for all dose levels.

[5] = CSF and plasma levels at end of 14 day repeat dose study in dogs; type: in vivo, dog; conditions: 30 mg/kg/day for 14 days
Procedure: CSF was also collected from dogs at the end of the 14 day repeat study upon necropsy (approximately 24 hours after the final dose was administered). Levels of the scyllo-cyclohexanehexyl in CSF increased with dose and followed the profile observed in plasma.

in vivo [6] = conditions: rat
Procedure: Plasma PK of a scyllo-cyclohexanehexyl compound in rats was assessed after 28 days oral dosing of 15, 50 and 150 mg/kg, administered twice daily. […] Indeed, at this dose level, the Vdss, clearance and elimination rates appeared to be reduced with repeated dosing. […] As for single doses, the scyllo-cyclohexanehexyl was absorbed rapidly, with mean tmax observed between 1.2 and 1.3 hours post-dose. […] Estimates of MRT were consistent.

[7] = Single oral and intravenous dose pharmacokinetics, dose range-finding study in beagle dogs; type: in vivo, beagle dog; conditions: dogs, comparison of PK profiles following oral and i.v. administration
Procedure: PK of single oral doses of the scyllo-cyclohexanhexyl was also investigated in a preliminary fashion in a dose range-finding study in 5 beagle dogs. […] The Cmax and AUC values increased proportionally with dose, consistent with observations in the larger study. Estimates of t½ ranged from 2 to 5 hours. Neither dose nor route of administration had any clear effect on t½, MRT, Cl/F or Vdss.

[8] = single oral doses 20, 80, 240 mg/kg

Tmax (in vivo [1]): 1.2 to 2.2 h | t½ (in vivo [1]): 1.7 to 2.2 h | Mean Cmax and AUC0-Inf in CSF as % of that observed in plasma [2]: 60% | plasma tmax (same animals) [2, 8]: 2.3 to 2.8 h | tmax in CSF [2, 8]: 2.8 to 4.0 h | Mean Cmax in CSF as % of plasma Cmax ([2]; single oral doses 20, 80, 240 mg/kg, same animals): 27-66% | AUC0-Inf in CSF as % of that in plasma ([2]; single oral doses, same animals, listed as scyllo-cyclohexanehexyl): 62% and 65% | half life (t1/2) (in vivo [3]): 2.1 to 2.7 h | mean tmax (in vivo [3]): 1.0 to 2.2 h | AUC(0-t) (in vivo [4]): 523 µg·h/mL | Tmax (in vivo [4]): 1.1 to 1.8 h | t½ (in vivo [4]): 2.9 to 4.7 h | levels in both plasma and CSF (12 and 24 hours after the last administration) [5]: ~4000 ng/mL | mean plasma concentration 12 hours after the last administration (in vivo [6]): ~6000 ng/mL | AUC(0-t) (in vivo [6]; po, 150 mg/kg): 573 µg·h/mL | mean tmax (in vivo [6]; po, 150 mg/kg): 1.2 to 1.3 h | t½ (in vivo [6]; po, 150 mg/kg): 3.1 to 4.4 h | estimated bioavailability [7]: > 90%
Substance: scyllo-inositol [AZD-103]
